Test results as given in patent US10987324B2, “Methods and compositions for the treatment of seizure-related disorders” (Adamas Pharmaceuticals, Inc., priority 2015, dated 2021).
Where two headings read alike, the source gives them in different places.

Legend:
[1] = cited from earlier work
[2] = PK phase, single IV or PO dose of lacosamide in mice (Example 12); type: in vivo, male CD-1 mice; conditions: male, CD-1, mouse, plasma
Source text: For the PK phase, male CD-1 mice were assigned to treatment groups according to the study design in Table Ex 12 below. IV dosing was done via tail vein injection and oral delivery was done with oral gavage tube.

[3] = Lacosamide plasma pharmacokinetics, ER infusion vs IP bolus in rats (Example 15); type: in vivo; conditions: for Slope (rate of rise of plasma concentration): from initiation of drug administration; for Tmax: read-out: median Tmax; for AUC(0-t): read-out: AUC0-18
[4] = tested on: motor coordination in rats; assay: Rotarod, ER profile vs IR profile of lacosamide in rats (Example 15); type: in vivo
Method: It is hypothesized that reducing the rate of rise of plasma concentrations with the ER profile compared to the IR profile results in reduced CNS impairment. CNS side effects were measured as an impairment of motor coordination in rodents using the rotarod. The rotarod (Ugo Basile, Italy) is a device that allows for quantitative measurement of motor coordination in rodents. Animals experiencing CNS side effects such as dizziness would fall off the rotarod faster than normal animals.
An acceleration protocol was used for training and test sessions, wherein the rotarod was accelerated from 0-40 rpm over a 5 minute session. All rats were then surgically implanted subcutaneously with programmable pumps (iPRECIO, Durect Corporation, Cupertino, Calif.), per the manufacturer's instructions, under anesthesia and using aseptic techniques.
Three days following pump implantation surgery, all rats were tested on the rotarod to obtain baseline performance values. Rats were assigned to treatment groups such that the mean time spent on the rotarod was similar for each group. Four groups of rats were utilized in this study, with 8-10 rats per group:
The total pump infusion duration was 18 hours. Control animals (group 1) were infused with vehicle (20% N-methyl-2-pyrrolidone, NMP) using the same infusion protocol. […] Control animals (group 3) were implanted with pumps containing vehicle and were given an IP bolus of vehicle.
Immediately following the 18 hour pump infusion for the ER groups, or 1 hour after IP injection for the IR groups, rats were placed on the rotarod and the rotarod was accelerated from 0-40 rpm over a 5 minute session, using the built-in function of the equipment. Animals that stayed on the rotarod for the entire session were assigned a run-time of 300 seconds. The time that each animal stayed on the rotarod prior to falling was automatically recorded.

[5] = tested on: motor coordination in rats; assay: Rotarod, IR vs ER subcutaneous infusion profile in rats (Example 14); type: in vivo; conditions: at Cmax
Method: The example investigates reducing the rate of rise of plasma concentrations with the ER profile compared to the IR profile results in reduced CNS impairment. CNS side effects are measured as an impairment of motor coordination in rodents using the rotarod. Performance of rodents in a battery of neurobehavioral tests conducted during the infusion period are used as secondary endpoints as measures of CNS impairment.
The infusion protocols are designed to produce pharmacokinetic profiles of lacosamide similar to that of IR lacosamide administered twice-a-day (BID) to humans (IR profile) or an extended release profile administered once-a-day (QD) to humans (ER profile) at varying doses administered as IR BID or ER QD.
Rats are pre-trained on the rotarod prior to testing and assigned to groups based on their body weights.
Following the period of acclimation, rats are surgically implanted with subcutaneous programmable pumps (iPRECIO), per the manufacturer's instructions. […]
On the test day at the specified time point, rats are placed on the rotarod and the rotarod is accelerated from 0-40 rpm over a 5 minute session, using the built-in function of the equipment. […] The time that each animal stays on the rotarod prior to falling is automatically recorded as the animal's fall latency. […]

[6] = aqueous systems; cited from earlier work
[7] = tested on: motor coordination in mice; assay: Rotarod test in mice, PD phase (Example 12); type: in vivo
Method: The rotarod (Ugo Basile, […]) is a device that allows for quantitative measurement of motor coordination in rodents. Animals are pre-trained prior to testing on the rotarod.
24 hours prior to the test day, mice are trained to run on the accelerating rotarod for at least 120 s in two consecutive trials. The mice are given up to 12 trials to achieve this performance criterion. Any mice not meeting this criterion are excluded from the test study.
Mice are randomized to treatment groups (vehicle; IV: 3, 10 30 mg/kg; PO: 10, 30, 90 mg/kg). On the day of the test, the animals are dosed with test article and placed on the rotarod 5 minutes post-dosing. The rotarod is accelerated from 0-40 rpm over a 5 minute session, using the built-in function of the equipment. The rotarod test is repeated for each mouse at 15, 30 and 60 minutes post-drug administration. Animals that stay on the rotarod are assigned a run-time of 300 seconds. The time that each animal stays on the rotarod prior to falling is automatically recorded as the animal's fall latency.
The latency to fall time on the rotarod recorded for each animal is reported at each time point post-dose. Latency to fall is averaged (±SEM) across the 10 animals in each treatment group at each time point.

[8] = cited from earlier work; remark: listed apart in the source

## CC(=O)N[C@H](CO)C(=O)NCc1ccccc1 [O-desmethyl metabolite]
[1]; CYP2C19 poor metabolizers compared to extensive metabolizers
  reduction of concentrations and amount excreted into urine: about 70%
[1]; human
  elimination / plasma / pharmacokinetic half-life: 15 to 23 h
[1]; oral dosing, human
  Tmax: 0.5 to 12 h

## COC[C@@H](NC(C)=O)C(=O)NCc1ccccc1 [lacosamide, R-2-acetamido-N-benzyl-3-methoxypropionamide]
[2]; 90 mg/kg oral dose
  Cmax: ~40000 ng/mL
[2]; IV route
  Tmax: < 0.0833 h
[2]; oral route
  Tmax: ~0.25 h
[2]; single 10 mg/kg IV dose
  Cmax: ~15000 ng/mL
[2]; single 30 mg/kg IV dose
  Cmax: ~40000 ng/mL
[2]; single 30 mg/kg oral dose
  Cmax: ~15000 ng/mL
[3]; Group 2 (ER)
  Slope (rate of rise of plasma concentration): 1.4 µg/mL/h
[3]; Group 4 (IR)
  Slope (rate of rise of plasma concentration): 62 µg/mL/h
[3]; PK satellite rats
  reduction in the rate of the rise (slope) ER compared to IR: 98%
[3]; rat, plasma, 19 mg/kg, IP bolus, IR profile (Group 4), PK satellite rats
  Tmax: 0.75 h
[3]; rat, plasma, intraperitoneal, 19 mg/kg, group 4 (IR profile)
  concentration at 1 h: ~19000 ng/mL
[3]; rat, plasma, intraperitoneal, 122 mg/kg, group 2 (ER profile)
  concentration at 18 h: ~19000 ng/mL
[3]; rat, plasma, ip, 19 mg/kg, Group 4 (IR), PK satellite rats
  Cmax: 22000 ng/mL
[3]; rat, plasma, ip, 19 mg/kg, Group 4 (IR)
  AUC(0-t): 18 µg·h/mL
[3]; rat, plasma, ip, 122 mg/kg, ER infusion protocol (Group 2), PK satellite rats
  Tmax: 15 h
[3]; rat, plasma, ip, 122 mg/kg, Group 2 (ER), 18 hour infusion
  AUC(0-t): 217 µg·h/mL
[3]; rat, plasma, ip, 122 mg/kg, Group 2 (ER), PK satellite rats
  Cmax: 19000 ng/mL
[4]; ER groups, p>0.05
  percent change from baseline in time on the rotarod vs vehicle: not statistically different
[4]; ER profile (group 2), vehicle 27% increase
  increase in time on the rotarod from baseline: 45%
[4]; IR profile, IP bolus (group 4), vehicle 54% increase
  reduction in time on the rotarod from baseline: 55%
[5]; given dose level
  time spent on the rotarod, IR profile compared to ER group: significantly reduced time spent on the rotarod (i.e. greater impairment)
[5]; given infusion protocol, 400 vs 800 mg/day HED
  time spent on the rotarod vs dose: decrease in a dose-dependent manner
[6]
  solubility: about 20 mg/ml
[7]; doses with equivalent Cmax but different Tmax (e.g. 30 mg/kg IV and 90 mg/kg PO)
  latency to fall, PO compared to IV: greater latency to fall on the rotarod (less impairment)
[7]; same route of administration (IV or PO)
  effect of an increase in dose on latency to fall: decrease in the latency to fall time on the rotarod
[1]; human
  elimination / plasma / pharmacokinetic half-life: about 13 hours
[1]; in vivo
  effect of CYP2C19 polymorphism on the pharmacokinetics: no significant effect

## C=CC(N)CCC(=O)O (racemic) [vigabatrin, (RS)-4-aminohex-5-enoic acid]
[1]; at steady state
  Cmax: 61000 ng/mL
  T1/2: 7.5 h
[1]; human
  elimination / plasma / pharmacokinetic half-life: about 10 hours
[1]; oral dosing, human
  Tmax: approximately 1 hours

## NC(=O)N1c2ccccc2CC(=O)c2ccccc21 [oxcarbazepine, 10,11-dihydro-10-oxo-5H-dibenz(b,f)azepine-5-carboxamide]
[1]; 600 mg IR BID
  AUC0-24: 16.8 µg·h/mL
  Cmax: 2720 ng/mL
[1]; human
  elimination / plasma / pharmacokinetic half-life: about 20 hours
[1]; human, listed as Oxcarbazepine
  elimination / plasma / pharmacokinetic half-life: approximately 2 hours
[1]; oral dosing, human
  Tmax: approximately 3 hours

## CC[C@@H](C(N)=O)N1CCCC1=O [levetiracetam, (S)-alpha-ethyl-2-oxo-pyrrolidine acetamide]
[8]; 4000 mg daily, untitrated study
  patients reporting somnolence: Approximately 45%
[8]; compared to 8% with placebo
  patients with somnolence: 14.8%
[1]; fasted subjects
  Tmax: approximately one
[1]; human
  elimination / plasma / pharmacokinetic half-life: about 7 hours
[1]; human, listed as Levetiracetam
  elimination / plasma / pharmacokinetic half-life: 6 to 8 h
[1]; in vivo
  AUC0-24: 300 to 350 µg·h/mL
[1]; mostly unmetabolized form
  renal excretion rate: 0.6 mL/min/kg

## CCCC(CCC)C(=O)O [divalproex sodium]
[1]; human
  elimination / plasma / pharmacokinetic half-life: about 15 hours

## NC(=O)N1c2ccccc2CC(O)c2ccccc21 (stereo not shown) [MDH, 10-monohydroxy metabolite]
[1]; human
  elimination / plasma / pharmacokinetic half-life: 9 h

## CCCC(CCC)C(=O)O [valproic acid, 2-propylpentanoic acid]
[1]; human
  elimination / plasma / pharmacokinetic half-life: 9 to 16 h
